Where a name gives a salt, the structure may show the parent alone.
target: T1, HIV integrase (Human immunodeficiency virus type 1 group M subtype B, UniProt P12497, F1332H); assay: Determination of enzyme (HIV integrase) inhibitory activity; type: biochemical; details: recombinant HIV integrase (F185H), strand transfer ELISA, absorbance at 450 nm
T1 construct: HIV integrase full length gene; made in house; host or cells: Escherichia coli BL21(DE3), plasmid pET21a-INH
Procedure, shortened: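 Full-length integrase with F185H, expressed in E. coli and purified, was reacted for 60 min at 37 °C with compound and biotinylated donor DNA bound to streptavidin plates. Target DNA was added for 10 min, then anti-digoxigenin-peroxidase detection at A450; IC50 from % inhibition versus enzyme-free blank.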

SMILES	IC50
COCc1c(C(=O)C(C)(C)C)c(=O)c(O)c2n1CCN(Cc1ccc(F)cc1)C2=O [Example 409, 7-(2,2-dimethylpropionyl)-2-(4-fluorobenzyl)-9-hydroxy-6-methoxymethyl-3,4-dihydro-2H-pyrido[1,2-a]pyrazine-1,8-dione hydrochloride]	0.01 to 0.1 µM
O=C(NCc1ccccn1)c1cn2c(c(O)c1=O)C(=O)N(Cc1ccc(F)cc1)CC2 [Example 410, N-(pyridin-2-ylmethyl)-2-(4-fluorobenzyl)-9-hydroxy-1,8-dioxo-1,3,4,8-tetrahydro-2H-pyrido[1,2-a]pyrazine-7-carboxamide hydrochloride]	0.01 to 0.1 µM
O=C(NCc1ccco1)c1cn2c(c(O)c1=O)C(=O)N(Cc1ccc(F)cc1)CC2 [Example 411, N-(furan-2-ylmethyl)-2-(4-fluorobenzyl)-9-hydroxy-1,8-dioxo-1,3,4,8-tetrahydro-2H-pyrido[1,2-a]pyrazine-7-carboxamide hydrochloride]	0.01 to 0.1 µM
CC(C)(C)C(=O)c1cn2c(c(O)c1=O)C(=O)N(Cc1ccc(F)cc1)CC2(C)C [Example 412, 7-(2,2-dimethylpropionyl)-2-(4-fluorobenzyl)-9-hydroxy-4,4-dimethyl-3,4-dihydro-2H-pyrido[1,2-a]pyrazine-1,8-dione hydrochloride]	0.01 to 0.1 µM
CC1(C)CN(Cc2ccc(F)cc2)C(=O)c2c(O)c(=O)c(Br)cn21 [Example 413, 7-bromo-2-(4-fluorobenzyl)-9-hydroxy-4,4-dimethyl-3,4-dihydro-2H-pyrido[1,2-a]pyrazine-1,8-dione hydrochloride]	0.1 to 1 µM
CC1(C)CN(Cc2ccc(F)cc2)C(=O)c2c(O)c(=O)c(-c3ccccn3)cn21 [Example 414, 2-(4-fluorobenzyl)-9-hydroxy-4,47dimethyl-7-(pyridin-2-yl)-3,4-dihydro-2H-pyrido[1,2-a]pyrazine-1,8-dione hydrochloride]	0.1 to 1 µM
CN(C)c1ccc(CNC(=O)c2cn3c(c(O)c2=O)C(=O)N(Cc2ccc(F)cc2)CC3)cc1 [Example 415, N-(4-dimethylaminobenzyl)-2-(4-fluorobenzyl)-9-hydroxy.-1,8-dioxo-1,3,4,8-tetrahydro-2H-pyrido[1,2-a]pyrazine-7-carboxamide hydrochloride]	0.01 to 0.1 µM
O=C1c2c(O)c(=O)c(-c3cnccn3)cn2CCN1Cc1cccc(Cl)c1 [Example 416, 2-(3-chlorobenzyl)-9-hydroxy-7-(pyrazin-2-yl)-3,4-dihydro-2H-pyrido[1,2-a]pyrazine-1,8-dione hydrochloride]	0.01 to 0.1 µM
O=C1c2c(O)c(=O)c(-c3cnccn3)cn2CCN1Cc1ccc(F)cc1 [Example 417, 2-(4-fluorobenzyl)-9-hydroxy-7-(pyrazin-2-yl)-3,4-dihydro-2H-pyrido[1,2-a]pyrazine-1,8-dione hydrochloride]	0.01 to 0.1 µM
O=C1c2c(O)c(=O)c(NS(=O)(=O)c3ccccc3)cn2CCN1Cc1ccc(F)c(Cl)c1 [Example 418, N-[2-(3-chloro-4-fluorobenzyl)-9-hydroxy-1,8-dioxo-1,3,4,8-tetrahydro-2H-pyrido[1,2-a]pyrazin-7-yl]benzenesulfonamide]	0.01 to 0.1 µM
O=C1c2c(O)c(=O)c(NS(=O)(=O)Cc3ccccc3)cn2CCN1Cc1ccc(F)c(Cl)c1 [Example 419, N-[2-(3-chloro-4-fluorobenzyl)-9-hydroxy-1,8-dioxo-1,3,4,8-tetrahydro-2H-pyrido[1,2-a]pyrazin-7-yl]benzylsulfonamide]	< 0.01 µM
O=C1c2c(O)c(=O)c(NS(=O)(=O)c3cccs3)cn2CCN1Cc1ccc(F)c(Cl)c1 [Example 420, N-[2-(3-chloro-4-fluorobenzyl)-9-hydroxy-1,8-dioxo-1,3,4,8-tetrahydro-2H-pyrido[1,2-a]pyrazin-7-yl]-2-thiophenesulfonamide]	0.01 to 0.1 µM
CS(=O)(=O)c1ccc(CNC(=O)c2cn3c(c(O)c2=O)C(=O)N(Cc2ccc(F)cc2)CC3)cc1 [Example 421, N-(4-methanesulfonylbenzyl)-2-(4-fluorobenzyl)-9-hydroxy-1,8-dioxo-1,3,4,8-tetrahydro-2H-pyrido[1,2-a]pyrazine-7-carboxamide hydrochloride]	0.01 to 0.1 µM
